The target in one assay is T1, HER2 WT (Homo sapiens, UniProt P04626).
T1 construct: purchased ProQinase, Freiburg, Germany ERBB2 0108-0000-1
Briefly: Enzymatic assay HER2 WT (method a). Format: biochemical. The settings on record: [HER2 WT]=12.5 nM, [ATP]=25 μM, [Peptide 22]=1 μM. The procedure, abridged: (§1)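 Initial rates over 0–3600 s, read as substrate-to-product conversion by capillary electrophoresis, were converted to percent inhibition and fitted with a variable-slope curve to give IC50. Conditions: EGFR WT 2 nM with 1 mM ATP; HER2 YVMA 5 nM or HER2 WT 12.5 nM, each with 25 μM ATP. All used 1 μM Peptide 22 in pH 7.5 HEPES/Mn/Mg buffer.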

Assay [1] has as its target T2, HER2 wildtype (WT) protein (Homo sapiens, UniProt P04626).
T2 construct: BT474 and N87 cell lines which endogenously overexpress the HER2 wildtype (WT) protein; endogenous in cells; host or cells: BT474, N87
Briefly: HER2 signaling (pHER2 Tyr1248/total HER2 MSD) in BT474 cells. The settings on record: 1.5 hr compound, 1% FBS. Format: cell-based. The procedure, abridged:
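BT474, N87 (HER2 WT) and NCI-H1781 (HER2 G776delinsVC) cells were treated for 1.5 h at 37° C in 1% FBS medium with compound at 0.0005–1.1 μM. pHER2 Tyr1248 was measured by MSD on whole-cell lysates and normalized to total HER2 as % DMSO. EC50 came from a variable-slope sigmoidal fit.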

The next assay deals with HER2YVMA (Homo sapiens, UniProt P04626, INS775YVMA). The assay is described as follows: Enzymatic assay HER2YVMA (method b). Format: biochemical. Further details: purchased Viva biotech, Shanghai, China custom purification. The settings on record: [HER2YVMA]=5 nM, [ATP]=25 μM, [Peptide 22]=1 μM. Put shortly:
as §1

T1 sequence (P04626 23-1255): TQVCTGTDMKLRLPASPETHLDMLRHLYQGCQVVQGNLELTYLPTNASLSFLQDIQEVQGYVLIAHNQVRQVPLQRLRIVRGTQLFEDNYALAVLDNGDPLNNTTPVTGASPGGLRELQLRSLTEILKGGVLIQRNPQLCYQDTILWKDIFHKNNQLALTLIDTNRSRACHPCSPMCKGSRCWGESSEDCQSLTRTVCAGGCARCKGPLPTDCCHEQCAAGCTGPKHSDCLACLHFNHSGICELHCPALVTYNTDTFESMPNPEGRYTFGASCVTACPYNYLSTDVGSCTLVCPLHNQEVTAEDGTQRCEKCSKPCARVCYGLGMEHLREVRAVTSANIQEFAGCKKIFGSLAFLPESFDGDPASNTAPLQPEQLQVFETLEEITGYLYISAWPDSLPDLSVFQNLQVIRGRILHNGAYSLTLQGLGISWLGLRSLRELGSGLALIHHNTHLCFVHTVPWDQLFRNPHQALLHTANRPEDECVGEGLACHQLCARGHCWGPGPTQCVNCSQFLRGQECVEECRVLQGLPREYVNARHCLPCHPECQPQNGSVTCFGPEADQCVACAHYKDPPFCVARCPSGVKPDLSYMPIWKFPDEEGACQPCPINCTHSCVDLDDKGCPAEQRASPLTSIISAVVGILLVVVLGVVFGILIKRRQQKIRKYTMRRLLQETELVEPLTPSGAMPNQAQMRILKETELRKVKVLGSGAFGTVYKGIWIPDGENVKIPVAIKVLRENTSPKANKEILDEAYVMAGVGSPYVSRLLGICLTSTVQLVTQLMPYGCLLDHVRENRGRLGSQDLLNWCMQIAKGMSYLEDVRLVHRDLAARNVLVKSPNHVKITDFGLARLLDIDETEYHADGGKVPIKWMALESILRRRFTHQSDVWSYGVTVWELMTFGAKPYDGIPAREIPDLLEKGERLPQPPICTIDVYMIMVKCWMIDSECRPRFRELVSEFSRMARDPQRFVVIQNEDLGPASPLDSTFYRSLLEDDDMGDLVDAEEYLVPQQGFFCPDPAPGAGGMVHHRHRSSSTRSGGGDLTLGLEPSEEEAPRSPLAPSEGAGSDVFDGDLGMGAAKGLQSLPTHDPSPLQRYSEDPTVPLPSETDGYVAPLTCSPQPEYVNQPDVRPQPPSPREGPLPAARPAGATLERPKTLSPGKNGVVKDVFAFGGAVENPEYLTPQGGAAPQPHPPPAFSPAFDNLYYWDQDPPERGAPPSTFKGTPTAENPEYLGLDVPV
T2 sequence (P04626 23-1255): as above
Chain of HER2YVMA (P04626 with tags, fused parts or gaps INS775YVMA): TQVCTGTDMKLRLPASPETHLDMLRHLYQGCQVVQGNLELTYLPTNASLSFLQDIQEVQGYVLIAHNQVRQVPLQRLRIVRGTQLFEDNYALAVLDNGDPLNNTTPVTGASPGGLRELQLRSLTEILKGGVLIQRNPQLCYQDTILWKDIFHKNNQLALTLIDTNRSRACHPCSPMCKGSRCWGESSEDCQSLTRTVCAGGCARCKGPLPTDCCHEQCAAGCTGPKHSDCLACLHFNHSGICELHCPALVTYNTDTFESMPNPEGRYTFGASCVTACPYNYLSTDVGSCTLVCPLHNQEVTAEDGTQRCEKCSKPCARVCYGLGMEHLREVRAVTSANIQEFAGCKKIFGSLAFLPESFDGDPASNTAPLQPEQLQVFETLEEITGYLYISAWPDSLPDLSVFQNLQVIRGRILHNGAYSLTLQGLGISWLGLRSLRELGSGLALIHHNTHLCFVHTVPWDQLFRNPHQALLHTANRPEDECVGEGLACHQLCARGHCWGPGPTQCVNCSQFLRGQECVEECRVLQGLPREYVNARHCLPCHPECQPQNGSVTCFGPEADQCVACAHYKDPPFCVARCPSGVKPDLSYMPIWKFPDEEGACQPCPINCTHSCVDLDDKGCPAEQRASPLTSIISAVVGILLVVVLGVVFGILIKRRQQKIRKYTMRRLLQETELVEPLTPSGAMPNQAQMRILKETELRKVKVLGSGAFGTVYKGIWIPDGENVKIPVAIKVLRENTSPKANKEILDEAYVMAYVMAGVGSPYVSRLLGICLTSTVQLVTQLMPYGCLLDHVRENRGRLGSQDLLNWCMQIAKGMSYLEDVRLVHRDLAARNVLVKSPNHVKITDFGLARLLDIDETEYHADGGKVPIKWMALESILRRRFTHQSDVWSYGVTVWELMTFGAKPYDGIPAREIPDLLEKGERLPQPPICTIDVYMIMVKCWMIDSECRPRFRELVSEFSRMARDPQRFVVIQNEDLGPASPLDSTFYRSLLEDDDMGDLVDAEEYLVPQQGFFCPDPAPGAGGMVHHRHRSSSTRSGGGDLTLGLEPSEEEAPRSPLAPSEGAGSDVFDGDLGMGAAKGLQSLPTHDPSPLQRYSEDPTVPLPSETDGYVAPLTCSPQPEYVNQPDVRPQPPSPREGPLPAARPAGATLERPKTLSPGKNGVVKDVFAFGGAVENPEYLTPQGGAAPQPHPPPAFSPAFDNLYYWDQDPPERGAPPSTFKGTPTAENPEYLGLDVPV

Regarding `Cc1ccc(Oc2ccc(Nc3ncnc4sc5c(c34)CCN(C(=O)/C=C/CN3CCC4(CCOC4)C3)C5)cc2C)cn1` (stereo not drawn) [Compound 67], the IC50 against HER2 WT and against HER2YVMA was less than 0.1 µM in each case. The compound further registered an EC50 in assay [1] of less than 0.1 µM.
Take `Cc1ccc(Oc2ccc(Nc3ncnc4sc5c(c34)CCN(C(=O)/C=C/CN3CC4CC3CO4)C5)cc2C)cn1` (stereo not drawn) [Compound 26]: the IC50 on HER2 WT and at HER2YVMA was less than 0.1 µM in each case. Further, the EC50 in assay [1] was less than 0.1 µM.
`C=CC(=O)N1CCc2c(sc3ncnc(Nc4ccc(Oc5ccc6ncnn6c5)c(Cl)c4)c23)C1` [Compound 4, 1-(4-((4-([1,2,4]triazolo[1,5-a]pyridin-6-yloxy)-3-chlorophenyl)amino)-5,8-dihydropyrido[4′,3′:4,5]thieno[2,3-d]pyrimidin-7(6H)-yl)prop-2-en-1-one]: the IC50 against HER2 WT and at HER2YVMA was less than 0.1 µM in each case. Further, the EC50 in assay [1] was less than 0.1 µM.
`Cc1ccc(Oc2ccc(Nc3ncnc4sc5c(c34)CCN(C(=O)/C=C/CN3CCCC3C(N)=O)C5)cc2C)cn1` (stereo not drawn) [Compound 41]: the IC50 against HER2 WT and against HER2YVMA was less than 0.1 µM in each case. This compound also gave an EC50 in assay [1] of less than 0.1 µM.
In the case of `Cc1ncc(Oc2ccc(Nc3ncnc4sc5c(c34)CCN(C(=O)/C=C/CN(C)C)C5)cc2C)cn1` [Compound 21, (E)-4-(dimethylamino)-1-(4-((3-methyl-4-((2-methylpyrimidin-5-yl)oxy)phenyl)amino)-5,8-dihydropyrido[4′,3′:4,5]thieno[2,3-d]pyrimidin-7(6H)-yl)but-2-en-1-one], the IC50 against HER2 WT and at HER2YVMA was 0.1 to 1 µM throughout. This compound gave an EC50 in assay [1] of less than 0.1 µM.
As for `Cc1ccc(Oc2ccc(Nc3ncnc4sc5c(c34)CCN(C(=O)/C=C/CNCc3cc(C)n[nH]3)C5)cc2C)cn1` [Compound 49], the IC50 against HER2 WT and on HER2YVMA was less than 0.1 µM each time. The same compound came in with an EC50 in assay [1] of less than 0.1 µM.
As for `Cc1ccc(Oc2ccc(Nc3ncnc4sc5c(c34)CCN(C(=O)/C=C/CN[C@@H](C)CO)C5)cc2C)cn1` [Compound 75], the IC50 against HER2 WT and against HER2YVMA was less than 0.1 µM in each case. Further, the 50% effective concentration (EC50) in assay [1] was less than 0.1 µM.
As for `Cc1ccc(Oc2ccc(Nc3ncnc4sc5c(c34)CCN(C(=O)/C=C/CNCC3CN(C)CCO3)C5)cc2C)cn1` (stereo not drawn) [Compound 48], the IC50 against HER2 WT and against HER2YVMA was less than 0.1 µM each time. In assay [1], this compound came in with an EC50 of less than 0.1 µM.
As for `CCOC/C=C/C(=O)N1CCc2c(sc3ncnc(Nc4ccc(Oc5ccc(C)nc5)c(C)c4)c23)C1` [Compound 96, (E)-4-ethoxy-1-(4-((3-methyl-4-((6-methylpyridin-3-yl)oxy)phenyl)amino)-5,8-dihydropyrido[4′,3′:4,5]thieno[2,3-d]pyrimidin-7(6H)-yl)but-2-en-1-one], the IC50 against HER2 WT and against HER2YVMA was less than 0.1 µM throughout. This compound gave an EC50 in assay [1] of less than 0.1 µM.
`C=CC(=O)N1CCc2[nH]c3ncnc(Nc4ccc(Oc5ccc(C)nc5)c(C)c4)c3c2C1` [Compound 94, 1-(4-((3-methyl-4-((6-methylpyridin-3-yl)oxy)phenyl)amino)-7,8-dihydro-5H-pyrido[3′,4′:4,5]pyrrolo[2,3-d]pyrimidin-6(9H)-yl)prop-2-en-1-one]: the IC50 against HER2 WT and on HER2YVMA was less than 0.1 µM in each case. The compound further returned an EC50 in assay [1] of less than 0.1 µM.
Consider `Cc1ccc(Oc2ccc(Nc3ncnc4sc5c(c34)CCN(C(=O)/C=C/CN3C4CCC3CC4)C5)cc2C)cn1` [Compound 44], for which the IC50 at HER2 WT and against HER2YVMA was less than 0.1 µM in each case. The compound also showed an EC50 in assay [1] of less than 0.1 µM.
Regarding `Cc1cc(Nc2ncnc3sc4c(c23)CCN(C(=O)/C=C/CN2CC(C)(C)OC(C)(C)C2)C4)ccc1Oc1ccc2ncnn2c1` [Compound 84], the IC50 on HER2 WT and on HER2YVMA was 0.1 to 1 µM in each case. In addition, the EC50 in assay [1] was less than 0.1 µM.
As to `Cc1ccc(Oc2ccc(Nc3ncnc4sc5c(c34)CCN(C(=O)/C=C/CN3CCC(n4ccnc4)CC3)C5)cc2C)cn1` [Compound 62], the IC50 against HER2 WT and against HER2YVMA was less than 0.1 µM throughout. Besides, the EC50 in assay [1] was less than 0.1 µM.
For `Cc1ccc(Oc2ccc(Nc3ncnc4sc5c(c34)CCN(C(=O)/C=C/CN3CC(O)C3)C5)cc2C)cn1` [Compound 53], the IC50 on HER2 WT and against HER2YVMA was less than 0.1 µM throughout. Moreover, the EC50 in assay [1] was less than 0.1 µM.
As to `Cc1ccc(Oc2ccc(Nc3ncnc4sc5c(c34)CCN(C(=O)/C=C/CNCCO)C5)cc2C)cn1` [Compound 65], the IC50 against HER2 WT and against HER2YVMA was less than 0.1 µM each time. Also, the EC50 in assay [1] is less than 0.1 µM.
For `Cc1ccc(Oc2ccc(Nc3ncnc4sc5c(c34)CCN(C(=O)/C=C/CNC3CCC(C(=O)N(C)C)CC3)C5)cc2C)cn1` (stereo not drawn) [Compound 71], the IC50 against HER2 WT and against HER2YVMA was less than 0.1 µM throughout. Besides, the concentration giving a half-maximal response (EC50) in assay [1] was less than 0.1 µM.
Turning to `Cc1cc(Nc2ncnc3sc4c(c23)CCN(C(=O)/C=C/CN(C)C)C4)ccc1Oc1cccc(B(O)O)c1` [Compound 64, (E)-(3-(4-((7-(4-(dimethylamino)but-2-enoyl)-5,6,7,8-tetrahydropyrido[4′,3′:4,5]thieno[2,3-d]pyrimidin-4-yl)amino)-2-methylphenoxy)phenyl)boronic acid], the IC50 at HER2 WT and against HER2YVMA was less than 0.1 µM in each case. Besides, the EC50 in assay [1] was less than 0.1 µM.
As for `O=C(/C=C/CN1CC2CC1CO2)N1CCc2c(sc3ncnc(Nc4ccc(Oc5ccc6ncnn6c5)c(Cl)c4)c23)C1` (stereo not drawn) [Compound 87], the IC50 at HER2 WT and on HER2YVMA was less than 0.1 µM throughout. For the same compound, the EC50 in assay [1] is less than 0.1 µM.
Turning to `Cc1ccc(Oc2ccc(Nc3ncnc4sc5c(c34)C(C)CN(C(=O)/C=C/CN(C)C)C5)cc2C)cn1` (stereo not drawn) [Compound 98, (E)-4-(dimethylamino)-1-(5-methyl-4-((3-methyl-4-((6-methylpyridin-3-yl)oxy)phenyl)amino)-5,8-dihydropyrido[4′,3′:4,5]thieno[2,3-d]pyrimidin-7(6H)-yl)but-2-en-1-one], the 50% inhibitory concentration (IC50) against HER2 WT and against HER2YVMA was less than 0.1 µM each time. In assay [1], this compound returned a concentration for a half-maximal effect (EC50) of less than 0.1 µM.
Regarding `Cc1ccc(Oc2ccc(Nc3ncnc4sc5c(c34)C(C)CN(C(=O)C=CCN(C)C)C5)cc2C)cn1` (single isomer, unassigned) [Compound 105], the IC50 on HER2 WT and against HER2YVMA was less than 0.1 µM in each case. The compound further had an EC50 in assay [1] of less than 0.1 µM.
Regarding `Cc1ccc(Oc2ccc(Nc3ncnc4sc5c(c34)CCN(C(=O)/C=C/CNC34CCC(C#N)(CC3)CC4)C5)cc2C)cn1` [Compound 72], the IC50 on HER2 WT and against HER2YVMA was less than 0.1 µM in each case. The EC50 in assay [1] is less than 0.1 µM.
Regarding `Cc1cc(Nc2ncnc3sc4c(c23)CCN(C(=O)/C=C/CN2CC3CC(C3)C2)C4)ccc1Oc1ccc2ncnn2c1` [Compound 82], the IC50 against HER2 WT and at HER2YVMA was less than 0.1 µM in each case. Further, in assay [1], the EC50 was less than 0.1 µM.
`Cc1cc(Nc2ncnc3sc4c(c23)CCN(C(=O)/C=C/CN2CC3CC2CO3)C4)ccc1Oc1ccc2ncnn2c1` (stereo not drawn) [Compound 77]: the 50% inhibitory concentration (IC50) against HER2 WT and at HER2YVMA was 0.1 to 1 µM each time. Also, the EC50 in assay [1] is less than 0.1 µM.
With `COc1ccc(Oc2ccc(Nc3ncnc4sc5c(c34)CCN(C(=O)/C=C/CN(C)C)C5)cc2C)cn1` [Compound 95, (E)-4-(Dimethylamino)-1-(4-((4-((6-methoxypyridin-3-yl)oxy)-3-methylphenyl)amino)-5,6-dihydropyrido[4′,3′:4,5]thieno[2,3-d]pyrimidin-7(8H)-yl)but-2-en-1-one], the IC50 at HER2 WT and against HER2YVMA was less than 0.1 µM each time. In assay [1], the EC50 is less than 0.1 µM.
As to `Cc1ccc(Oc2ccc(Nc3ncnc4sc5c(c34)CCCN(C(=O)/C=C/CN(C)C)C5)cc2C)cn1` [Compound 101, (E)-4-(Dimethylamino)-1-(4-((3-methyl-4-((6-methylpyridin-3-yl)oxy)phenyl)amino)-6,7-dihydro-5H-pyrimido[5′,4′:4,5]thieno[2,3-c]azepin-8(9H)-yl)but-2-en-1-one], the IC50 on HER2 WT and at HER2YVMA was less than 0.1 µM each time. Also, the EC50 in assay [1] was less than 0.1 µM.
`Cc1ccc(Oc2ccc(Nc3ncnc4sc5c(c34)CCN(C(=O)/C=C/CN[C@H]3CC[C@H](OCC(F)(F)F)CC3)C5)cc2C)cn1` [Compound 70]: the IC50 at HER2 WT and against HER2YVMA was less than 0.1 µM each time. Besides, in assay [1], the EC50 was less than 0.1 µM.
Take `Cc1cc(Nc2ncnc3sc4c(c23)CCN(C(=O)/C=C/CN(C)C(C)(C)C)C4)ccc1Oc1ccc2ncnn2c1` [Compound 80]: the IC50 on HER2 WT and against HER2YVMA was less than 0.1 µM throughout. Moreover, the EC50 in assay [1] is less than 0.1 µM.
Regarding `Cc1ccc(Oc2ccc(Nc3ncnc4sc5c(c34)CCN(C(=O)/C=C/CNCCS(C)(=O)=O)C5)cc2C)cn1` [Compound 45], the IC50 against HER2 WT and against HER2YVMA was less than 0.1 µM each time. In assay [1], this compound gave an EC50 of less than 0.1 µM.
As to `Cc1ccc(Oc2ccc(Nc3ncnc4sc5c(c34)CCN(C(=O)/C=C/CN[C@H]3CC[C@H](OC(F)F)CC3)C5)cc2C)cn1` [Compound 69], the IC50 against HER2 WT and against HER2YVMA was less than 0.1 µM each time. Besides, the EC50 in assay [1] was less than 0.1 µM.
As for `Cc1ccc(Oc2ccc(Nc3ncnc4sc5c(c34)CCN(C(=O)/C=C/CN3CC4C(CO)C4C3)C5)cc2C)cn1` (stereo not drawn) [Compound 34], the IC50 at HER2 WT and against HER2YVMA was less than 0.1 µM in each case. The EC50 in assay [1] is less than 0.1 µM.

What is called IC50 is the point on the concentration scale where inhibition reaches its midpoint. Low readings indicate greater potency in that assay, high ones weaker potency in that assay. The term EC50 denotes the concentration giving half of the maximal effect.

Source of the values: patent US20240391931A1 (Bristol-Myers Squibb Company, priority 2021, published 2024).
